# Reference: patent EP0367447A1, “Human epithelial transforming growth factor” (SMITHKLINE BEECHAM CORPORATION, priority 1988, dated 1990)
# Ends that are not written are not given here.
# Test system: SW13 cells
# Experiment: growth of SW13 cells in soft agar (colony formation, Halper et al. 1983, modified)
# Format: cell-based, human
# Conditions: qualitative; whether the substance stimulates or mimics the growth response
# Description: By the term 'anchorage independent growth of SW13 cells in soft agar in an autocrine fashion' is meant that the anchorage independent growth of the SW13 cells in soft agar is stimulated by a growth factor produced by the SW13 cells. Such 'anchorage independent growth of SW13 cells in soft agar is measured by the method described by Halper et al., Cancer Research, 43, 1972-1979 (1983). Preferably such method is modified so that the base and upper layers contain 0.5% and 0.3% agarose, respectively in DMEM, 10% fetal bovine serum, and 5000 cells are plated per 3 cm dish.
# h-TGFe activity was measured using growth of SW13 cells in soft agar as described by Halper et al., Cancer Research, 43, 1972-1979 (1983), except that the base and upper layers contained 0.5% and 0.3% agarose, respectively in DMEM, 10% fetal bovine serum, and 5000 cells were plated per 3 cm dish.
# Human milk was delipidated by ether extraction and acidified with TFA (0.5% final concentration). The acidified material was filtered through a 0.45 µm membrane and concentrated 5-fold using an Amicon YM5 membrane. The concentrate was dialyzed against 0.05% TFA, lyophilized, reconstituted at 10 times the original concentration and bioassayed on SW13 cells.
# Samples of colon carcinoma tissue from patients along with two specimens of normal adjacent colon were obtained at surgery and snap frozen in liquid nitrogen. […]
row,Substance,colony formation by SW13 cells in the soft agar assay
1,bombesin,not mimicked
2,"gastrin: Synthetic human gastrin obtained from Sigma (QGPWLEEEEEAYGWMDF; ends and bridges not checked; UniProt P01350 76-92, looked up)",not mimicked
